One molecule from BindingDB's records for patent US20240316020 (Icagen, 2024) can be followed below.

The assay addresses Potassium voltage-gated channel subfamily KQT member 2 (Homo sapiens, UniProt O43526). The experiment in a line: SyncroPatch 384 (Nanion) High Throughput Electrophysiology. On the procedure: Human Kv7.2, Kv7.4 or Kv7.5/7.3 channels were evaluated using a voltage protocol in which cells were voltage-clamped at a holding potential of -60 mV. Potassium currents were continuously activated with a series of three voltage steps to -30 mV for 3 seconds, 40 mV for 1 second and -90 mV for 4 seconds with 12 seconds between successive voltage sweeps. Potassium currents were measured from the -90 mV repolarizing step. Baseline current was assessed for 3.5 minutes prior to the addition of 5.6 uM zinc pyrithione (1 uM for Kv7.4). Kv7.2, Kv7.4 or Kv7.5/7.3 current in the presence of zinc pyrithione was acquired over five minutes to allow channels to reach steady state activity prior to addition of test agents. Channel activity was monitored for three minutes preceding the addition of 30 uM ML-213 (3 minutes) to achieve maximum activation.
Background: Patch clamp records ionic current or voltage across a cell membrane.

What is called pEC50 is −log10 of the EC50, conventionally taken in molar units. Read a low pEC50 as a large EC50.

Each structure is given as a SMILES string. pEC50: −log10 of the molar value.

Chain of Potassium voltage-gated channel subfamily KQT member 2 (O43526 whole entry): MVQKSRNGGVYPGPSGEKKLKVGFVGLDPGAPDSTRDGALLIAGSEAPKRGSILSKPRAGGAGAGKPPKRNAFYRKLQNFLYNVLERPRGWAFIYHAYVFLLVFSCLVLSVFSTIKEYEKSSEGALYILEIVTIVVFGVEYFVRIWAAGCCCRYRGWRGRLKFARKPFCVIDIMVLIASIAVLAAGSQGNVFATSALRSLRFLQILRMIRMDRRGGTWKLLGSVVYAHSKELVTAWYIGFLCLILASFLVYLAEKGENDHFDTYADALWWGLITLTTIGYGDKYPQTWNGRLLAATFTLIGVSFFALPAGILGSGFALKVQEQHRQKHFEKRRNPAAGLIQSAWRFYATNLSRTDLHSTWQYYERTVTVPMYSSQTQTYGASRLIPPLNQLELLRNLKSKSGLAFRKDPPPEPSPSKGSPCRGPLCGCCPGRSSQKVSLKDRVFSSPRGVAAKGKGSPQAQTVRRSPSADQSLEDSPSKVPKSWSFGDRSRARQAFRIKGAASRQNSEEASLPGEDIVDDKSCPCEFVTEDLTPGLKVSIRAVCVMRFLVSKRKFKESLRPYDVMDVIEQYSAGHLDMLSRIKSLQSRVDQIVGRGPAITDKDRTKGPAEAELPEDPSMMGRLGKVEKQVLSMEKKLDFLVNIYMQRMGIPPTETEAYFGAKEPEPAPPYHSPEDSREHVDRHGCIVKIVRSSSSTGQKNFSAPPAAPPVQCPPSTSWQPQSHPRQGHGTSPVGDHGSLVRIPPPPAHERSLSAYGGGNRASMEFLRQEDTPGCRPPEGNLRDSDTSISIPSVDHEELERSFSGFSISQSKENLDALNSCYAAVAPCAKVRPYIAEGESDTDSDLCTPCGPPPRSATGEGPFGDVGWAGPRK

Molecule `O=C(NCc1ccnc(-n2cccn2)c1)NC1COC2(CCCC2)C1` (stereo unspecified) [US20240316020, Example 1] had a negative logarithm of the EC50 (pEC50) of 5.44.
